Test results as given in patent publication US20240245711A1, “A 19-NOR C3,3-DISUBSTITUTED C21-N-PYRAZOLYL STEROID FOR THE TREATMENT OF MAJOR DEPRESSIVE DISORDER” (Sage Therapeutics, Inc., priority 2021, published 2024).
Entries after “also recorded” stand apart in the source; their conditions may differ.

Test system: adult subjects with Major Depressive Disorder
Experiment: Phase 3 open-label 1-year study: safety and tolerability (TEAEs, SAEs, C-SSRS)
Assay type: in vivo, human
Method: Primary Objective: To determine the safety and tolerability of initial treatment and re-treatment(s) with Compound (1) in adults with Major Depressive Disorder (MDD) currently experiencing a major depressive episode (MDE) over a 1-year period.
Study Population: Subjects were 18-75 years old, diagnosed with major depressive disorder (MDD) with a MADRS total score of ≥28 and a HAM-D total score of ≥20 at Screening and Day 1 (prior to dosing).
Treatment Groups: The 30 mg and 50 mg dose groups were separated by time of enrollment. The study is comprised of two cohorts: one with Compound (1) 30 mg as a starting dose (30 mg Cohort: n=725), an initial cohort with Compound (1) 50 mg as a starting dose (50 mg Cohort: n=199). A patient receiving Compound (1) 30 mg could be dose reduced to 20 mg and patients receiving Compound (1) 50 mg could be dose reduced to 40 mg (based on tolerability). In all cohorts, Compound (1) is self-administered by patients as an oral therapy once nightly with food for 14 days.
The study has a Screening Period of up to 28 days, a 14-day Treatment Period, and up to 1 year of Follow-up. FIG. 1 is an overview of the study.
Antidepressants were permitted provided subjects were on a stable dose for at least 60 days prior to Day 1 and agreed to continue on the stable dose through the follow-up period (Day 42). Initiation of new antidepressants or any other medications that may potentially have an impact on efficacy or safety endpoints were not allowed between screening and completion of the Day 42 assessments.
Eligible subjects were given Compound (1)—to be taken at home in the evening with meal.
Subjects who continued in the Observation Period were monitored remotely via PHQ-9 assessment every two weeks. If PHQ-9 score was >=10 at any assessment, PHQ-9 assessment was switch to every week until the score came down below 10 or the subject was dosed with Compound (1) in a subsequent cycle, whichever was earlier. A subject was to come back to the site for HAM-D assessment within a week of PHQ-9 score >=10; if the HAM-D total score >=20 and at least 56 days had elapsed since the last dose of Compound (1), another dosing cycle of Compound (1) were to start. If any of these criteria were not met, the subject couldn't be treated with Compound (1) at that time. Without the trigger of PHQ-9>=10 the subject was to have a clinic visit every 8 weeks. A subject could have at most 5 cycles of treatment within a year. FIG. 2 is a depiction of the eligibility criteria of the study.
Dose reduction from 30 mg to 20 mg or 50 mg to 40 mg was allowed in any treatment cycle if the safety and/or tolerability of the subject so warrants. […] Subjects who dose reduced from 30 mg to 20 mg still started with 30 mg in the next treatment cycle.
The cohorts pertaining to the different doses that the subjects received were defined as following: • 50 mg cohort: This cohort includes subjects who have initiated treatment with 50 mg and received re-treatment with 50 mg only. • 30 mg cohort: This cohort includes subjects who have initiated treatment with 30 mg regardless of the dose they have received in re-treatments. • Low dose cohort: This cohort includes subjects who have initiated treatment with 30 mg and received re-treatment with 30 mg only. • Dose switch cohort: This cohort includes subjects who have received initial treatment with 30 mg and at least one subsequent re-treatment with 50 mg. • Study Period X: starts on the date of the first dose of Compound (1) in cycle X and goes up to one day prior to the first dose of the next cycle. […]

[1] = 50 mg Cohort, one-year follow-up (Example 4)
[2] = Low Dose Cohort, ATD use at period-specific baseline No, Study Period 1
[3] = Low Dose Cohort, ATD use at period-specific baseline No, Study Period 2

Structure (SMILES): C[C@@]1(O)CC[C@H]2[C@H](CC[C@@H]3[C@@H]2CC[C@]2(C)[C@@H](C(=O)Cn4cc(C#N)cn4)CC[C@@H]32)C1 [Compound (1), 1-(2-((3R,5R,8R,9R,10S,13S,14S,17S)-3-hydroxy-3,13-dimethylhexadecahydro-1H-cyclopenta[a]phenanthren-17-yl)-2-oxoethyl)-1H-pyrazole-4-carbonitrile]
- Subjects with at least one TEAE leading to study drug discontinuation (30 mg Cohort (N = 725)): 19 (2.6%)
- Subjects with at least one TEAE leading to study withdrawal (30 mg Cohort (N = 725)): 32 (4.4%)
- Subjects with at least one serious TEAE (30 mg Cohort (N = 725)): 20 (2.8%)
- TEAE severity Mild, subjects n (%) (30 mg Cohort (N = 725)): 200 (27.6%)
- TEAE severity Moderate, subjects n (%) (30 mg Cohort (N = 725)): 248 (34.2%)
- TEAE severity Severe / subjects with at least one severe TEAE, n (%) (30 mg Cohort (N = 725)): 45 (6.2%)
- Events of loss of consciousness (30 mg and 50 mg, as of the cutoff date): No events of loss of consciousness
- Possibly or probably related SAEs (50 mg Cohort): Confusional state; also recorded: Asthenia; also recorded: Delirium
- Subjects with at least one serious TEAE (50 mg Cohort (N = 199)): 7 (3.5%)
- TEAE Arthralgia, subjects n (%) (50 mg Cohort (N = 199)): 1 (0.5%)
- TEAE Back Pain, subjects n (%) (50 mg Cohort (N = 199)): 0%
- TEAE Diarrhea, subjects n (%) (50 mg Cohort (N = 199)): 4 (2.0%)
- TEAE Dizziness, subjects n (%) (50 mg Cohort (N = 199)): 30 (15.1%)
- TEAE Dry Mouth, subjects n (%) (50 mg Cohort (N = 199)): 7 (3.5%)
- TEAE Fatigue, subjects n (%) (50 mg Cohort (N = 199)): 5 (2.5%)
- TEAE Headache, subjects n (%) (50 mg Cohort (N = 199)): 20 (10.1%)
- TEAE Insomnia, subjects n (%) (50 mg Cohort (N = 199)): 10 (5.0%)
- TEAE Nausea, subjects n (%) (50 mg Cohort (N = 199)): 11 (5.5%)
- TEAE Sedation, subjects n (%) (50 mg Cohort (N = 199)): 18 (9.0%)
- TEAE Somnolence, subjects n (%) (50 mg Cohort (N = 199)): 29 (14.6%)
- TEAE Upper Respiratory Tract Infection, subjects n (%) (50 mg Cohort (N = 199)): 1 (0.5%)
- TEAE severity Mild, subjects n (%) (50 mg Cohort (N = 199)): 45 (22.6%)
- TEAE severity Moderate, subjects n (%) (50 mg Cohort (N = 199)): 65 (32.7%)
- TEAE severity Severe / subjects with at least one severe TEAE, n (%) (50 mg Cohort (N = 199)): 15 (7.5%)
- Withdrawn in Treatment Cycle 1: Adverse event, n (%) (50 mg Cohort (n = 199)): 11 (5.5%)
- Maximum severity of TEAEs reported by the majority of subjects [1]: mild to moderate
- TEAE Dizziness, subjects n (%) [1]: 15.1%
- TEAE Headache, subjects n (%) [1]: 12.7%
- TEAE Insomnia, subjects n (%) [1]: 7.0%
- TEAE Nausea, subjects n (%) [1]: 6.5%
- TEAE Sedation, subjects n (%) [1]: 10.1%
- TEAE Somnolence, subjects n (%) [1]: 16.1%
- TEAE tremor, subjects (n; %) [1]: 5.5%
- Subjects reporting TEAEs leading to discontinuation of study drug (50 mg Cohort, one-year follow-up (Example 4), 13/199): 6.5%
- Subjects reporting TEAEs leading to withdrawal from study (50 mg Cohort, one-year follow-up (Example 4), 16/199): 8.0%
- Subjects reporting at least one adverse event (50 mg Cohort, one-year follow-up (Example 4), 137 of 199): 68.8%
- Subjects reporting TEAEs leading to dose reduction, n/N (50 mg cohort, Cycle 2): 2/26
- Proportion of subjects reporting TEAEs (50 mg cohort, as printed in b423 (46/76)): 60.5%
- Subjects reporting TEAEs leading to dose reduction (50 mg cohort, overall (34/199)): 17.1%
- Tolerability (Compound (1) 50 mg, 50 mg Cohort followed up to one year (Example 4)): generally well-tolerated
- Subjects with at least one serious TEAE (Dose Switch Cohort (N = 80)): 1 (1.3%)
- TEAE Arthralgia, subjects n (%) (Dose Switch Cohort (N = 80)): 5 (6.3%)
- TEAE Back Pain, subjects n (%) (Dose Switch Cohort (N = 80)): 5 (6.3%)
- TEAE Diarrhea, subjects n (%) (Dose Switch Cohort (N = 80)): 11 (13.8%)
- TEAE Dizziness, subjects n (%) (Dose Switch Cohort (N = 80)): 7 (8.8%)
- TEAE Dry Mouth, subjects n (%) (Dose Switch Cohort (N = 80)): 3 (3.8%)
- TEAE Fatigue, subjects n (%) (Dose Switch Cohort (N = 80)): 8 (10.0%)
- TEAE Headache, subjects n (%) (Dose Switch Cohort (N = 80)): 13 (16.3%)
- TEAE Insomnia, subjects n (%) (Dose Switch Cohort (N = 80)): 5 (6.3%)
- TEAE Nausea, subjects n (%) (Dose Switch Cohort (N = 80)): 3 (3.8%)
- TEAE Sedation, subjects n (%) (Dose Switch Cohort (N = 80)): 11 (13.8%)
- TEAE Somnolence, subjects n (%) (Dose Switch Cohort (N = 80)): 10 (12.5%)
- TEAE Upper Respiratory Tract Infection, subjects n (%) (Dose Switch Cohort (N = 80)): 5 (6.3%)
- TEAE severity Mild, subjects n (%) (Dose Switch Cohort (N = 80)): 13 (16.3%)
- TEAE severity Moderate, subjects n (%) (Dose Switch Cohort (N = 80)): 36 (45.0%)
- TEAE severity Severe / subjects with at least one severe TEAE, n (%) (Dose Switch Cohort (N = 80)): 8 (10.0%)
- Proportion of subjects reporting TEAEs (Dose Switch cohort, as printed in b423 (37/48)): 77.1%
- Subjects reporting TEAEs leading to dose reduction (Dose switch cohort, Cycle 1 while on 30 mg): 2.5%
- Subjects reporting TEAEs leading to dose reduction (Dose switch cohort, Cycle 2 while on 30 mg): 2.5%
- Subjects reporting TEAEs leading to dose reduction (Dose switch cohort, Cycle 3 while switched to 50 mg): 4.2%
- Subjects reporting TEAEs leading to dose reduction (Dose switch cohort, Cycle 4 while switched to 50 mg): 3.8%
- Subjects reporting TEAEs leading to dose reduction (Dose switch cohort, Cycle 5 while switched to 50 mg): 17.4%
- Subjects reporting TEAEs leading to dose reduction (Dose switch cohort, overall (12/80)): 15.0%
- Possibly or probably related SAEs (Low Dose Cohort): Suicidal ideation
- Subjects with at least one serious TEAE (Low Dose Cohort (N = 645)): 19 (2.9%)
- TEAE Arthralgia, subjects n (%) (Low Dose Cohort (N = 645)): 14 (2.2%)
- TEAE Back Pain, subjects n (%) (Low Dose Cohort (N = 645)): 18 (2.8%)
- TEAE Diarrhea, subjects n (%) (Low Dose Cohort (N = 645)): 43 (6.7%)
- TEAE Dizziness, subjects n (%) (Low Dose Cohort (N = 645)): 47 (7.3%)
- TEAE Dry Mouth, subjects n (%) (Low Dose Cohort (N = 645)): 40 (6.2%)
- TEAE Fatigue, subjects n (%) (Low Dose Cohort (N = 645)): 27 (4.2%)
- TEAE Headache, subjects n (%) (Low Dose Cohort (N = 645)): 90 (14.0%)
- TEAE Insomnia, subjects n (%) (Low Dose Cohort (N = 645)): 31 (4.8%)
- TEAE Nausea, subjects n (%) (Low Dose Cohort (N = 645)): 25 (3.9%)
- TEAE Sedation, subjects n (%) (Low Dose Cohort (N = 645)): 29 (4.5%)
- TEAE Somnolence, subjects n (%) (Low Dose Cohort (N = 645)): 76 (11.8%)
- TEAE Upper Respiratory Tract Infection, subjects n (%) (Low Dose Cohort (N = 645)): 52 (8.1%)
- TEAE severity Mild, subjects n (%) (Low Dose Cohort (N = 645)): 187 (29.0%)
- TEAE severity Moderate, subjects n (%) (Low Dose Cohort (N = 645)): 212 (32.9%)
- TEAE severity Severe / subjects with at least one severe TEAE, n (%) (Low Dose Cohort (N = 645)): 37 (5.7%)
- Withdrawn in Treatment Cycle 1: Adverse event, n (%) (Low Dose Cohort (n = 645)): 15 (2.3%)
- Subjects with a TEAE leading to study drug discontinuation [2]: (3.2%)
- Subjects with a Treatment cycle period AE leading to study withdrawal [2]: (3.7%)
- Subjects with at least one TEAE [2]: (67.5%)
- Subjects with at least one Treatment cycle period TEAE [2]: (53.6%)
- Subjects with at least one Treatment cycle period serious TEAE [2]: (1.3%)
- Subjects with at least one Treatment cycle period severe TEAE [2]: (2.6%)
- Subjects with at least one Treatment period AE [2]: (51.2%)
- Subjects with a TEAE leading to study drug discontinuation [3]: 1 (0.8%)
- Subjects with a Treatment cycle period AE leading to study withdrawal [3]: 3 (2.5%)
- Subjects with at least one TEAE [3]: 75 (63.6%)
- Subjects with at least one Treatment cycle period TEAE [3]: 58 (49.2%)
- Subjects with at least one Treatment cycle period serious TEAE [3]: 0%
- Subjects with at least one Treatment cycle period severe TEAE [3]: 2 (1.7%)
